Holding throughout (experiment): ATP hydrolysis, [γ-32P]-ATP TLC, Michaelis-Menten fit
Holding throughout (assay type): biochemical
Settings in all cases: M13 ssDNA 1.5 μM nt, 10 nM Pif1, 5 mM MgCl2, 60 mM KCl, pH 7.5, 30 °C, no RPA; labelled compound as tracer

For assay [1], the target named is T1, GFP-Pif1 (Saccharomyces cerevisiae, UniProt P07271, H705A).
T1 construct: N-terminal superfolder GFP fusion of nuclear isoform residues 40-859, pRSF-Duet-1, E. coli Rosetta2(DE3), Ni-NTA purified
T1 sequence (P07271 40-859 H705A): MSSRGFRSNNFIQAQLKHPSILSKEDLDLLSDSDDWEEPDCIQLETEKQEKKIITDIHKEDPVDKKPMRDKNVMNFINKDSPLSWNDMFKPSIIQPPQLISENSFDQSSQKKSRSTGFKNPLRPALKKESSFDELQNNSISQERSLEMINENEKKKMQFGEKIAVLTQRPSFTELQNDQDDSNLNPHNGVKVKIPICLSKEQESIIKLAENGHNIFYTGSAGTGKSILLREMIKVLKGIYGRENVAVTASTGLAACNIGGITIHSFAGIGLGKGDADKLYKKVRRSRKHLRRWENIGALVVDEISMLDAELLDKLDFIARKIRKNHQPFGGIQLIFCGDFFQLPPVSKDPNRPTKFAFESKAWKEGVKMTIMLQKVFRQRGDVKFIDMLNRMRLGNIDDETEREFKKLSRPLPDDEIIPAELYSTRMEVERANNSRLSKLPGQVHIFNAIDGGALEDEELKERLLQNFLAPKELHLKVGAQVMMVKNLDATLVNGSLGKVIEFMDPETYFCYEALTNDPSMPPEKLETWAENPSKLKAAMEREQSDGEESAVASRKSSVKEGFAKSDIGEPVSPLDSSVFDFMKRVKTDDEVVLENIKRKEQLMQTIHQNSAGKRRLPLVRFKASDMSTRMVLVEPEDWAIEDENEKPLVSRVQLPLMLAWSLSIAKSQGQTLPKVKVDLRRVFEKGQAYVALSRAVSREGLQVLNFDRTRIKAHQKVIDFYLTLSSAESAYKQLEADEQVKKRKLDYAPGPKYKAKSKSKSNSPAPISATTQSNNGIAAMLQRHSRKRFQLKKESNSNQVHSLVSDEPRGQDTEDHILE

In assay [2] the target is T2, GFP-Pif1 (Saccharomyces cerevisiae, UniProt P07271).
T2 construct: N-terminal superfolder GFP fusion of nuclear isoform residues 40-859, pRSF-Duet-1, E. coli Rosetta2(DE3), Ni-NTA purified
T2 sequence (P07271 40-859): T1 sequence (P07271 40-859 H705A) with A666H
As for the experimental part: ATP hydrolysis, [γ-32P]-ATP TLC, Michaelis-Menten fit on GFP-Pif1 | Values for Vmax, Km, and kcat were determined and compared to WT Pif1

Assay [3] addresses T3, GFP-Pif1 (Saccharomyces cerevisiae, UniProt P07271, T301A).
T3 construct: N-terminal superfolder GFP fusion of nuclear isoform residues 40-859, pRSF-Duet-1, E. coli Rosetta2(DE3), Ni-NTA purified
T3 sequence (P07271 40-859 T301A): T1 sequence (P07271 40-859 H705A) with T262A, A666H

The structures appear in SMILES notation. Where a chain is given by its changes, count along the chain named.

The term Km denotes the substrate concentration at which the rate is half of its maximum.

Regarding `Nc1ncnc2c1ncn2[C@@H]1O[C@H](COP(=O)(O)OP(=O)(O)OP(=O)(O)O)[C@@H](O)[C@H]1O` [ATP], the values for the Km at GFP-Pif1 [1], on GFP-Pif1 [2] and on GFP-Pif1 [3] were 1210 µM, 470 ± 620 µM and 1000 ± 830 µM, respectively.

The record behind these values is paper PMC10279920, “Single-molecule visualization of Pif1 helicase translocation on single-stranded DNA” (The Journal of Biological Chemistry, 2023).
